Assay results reported in patent publication US4740499A, “Method of enhancing the bioactivity of atrial peptides” (Monsanto Company, priority 1986, dated 1988).

Legend:
[1] = HPLC analysis of thiorphan after dissolution in NaOH and neutralisation; type: physicochemical; details: dissolved in 0.1 N NaOH, neutralized with 0.5 N HCl, diluted with 0.9% saline
Method: (§1) Thiorphan was dissolved in a minimal amount of 0.1 N NaOH to produce the sodium salt. The solution was immediately neutralized using 0.5 N HCl and diluted to a final concentration with 0.9% saline.

[2] = Plasma AP-III levels (radioimmunoassay) in rats, first test: constant AP-III infusion, varied thiorphan dose; type: in vivo, rat; details: for AP-III Plasma concn. / Increase of plasma AP-III levels over control levels: rat; for AP-III Plasma concn.: AP-III 833 ng/kg/min i.v. infusion; for Increase of plasma AP-III levels over control levels: AP-III 833 ng/kg/min
Method: (§2) Plasma levels of atriopeptin III (AP-III) were tested in rats in which the AP-III was infused intravenously both with and without contemporaneous administration of thiorphan.
(§3) Male Sprague-Dawley rats, 240-310 g, were used for all tests. The rats were housed in the test facilities for at least 6 days before they were used.
(§4) Cannulas were made of PE-10 (polyethylene) tubing inserted and glued into a piece of PE-50 tubing. Rats were anesthetized with pentobarbital (50 mg/kg i.p.) and had cannulas inserted into the left femoral vein and artery. Both were inserted four cm into the vessels and tied securely. They were then tunnelled under the skin and brought out between the rat's shoulder blades and then cut so that only 1-2 cm was externalized. Cannulas were glued in place using Superglue and filled with saline containing 100 units heparin/ml. Rats were allowed to wake up and then housed individually with food and water ad libitum.
(§5) Two days after surgery, the rats were weighed and put into restraining cages that allowed limited movement. […] Blood was collected from the femoral artery and replaced with saline containing 10 units heparin/ml. In most tests, 0.3 ml blood was taken, except that when basal AP-III levels were measured 0.4 ml blood was withdrawn. Blood was immediately centrifuged in a microcentrifuge for one minute and plasma was frozen in plastic tubes placed on dry ice. Samples were kept in a -80° C. freezer until they were analyzed.
as §1
After taking the second sample, thiorphan was given as a bolus injection into the femoral artery and the line was flushed with 0.2 ml saline. The doses of thiorphan were 1,3,10 and 30 mg/kg; one set of rats received only a saline bolus as a control. Blood was taken 10,20,30 and 60 minutes after the injection of thiorphan. AP-III was infused during the entire experiment for a total of 90 minutes.
(§6) Plasma AP-III levels were analyzed by radioimmunoassay using a second antibody to separate free and bound AP-III. The label was ^125 I-AP-III that was purified by HPLC after iodination. Conditions were set so that 35-40% of the total counts were precipitated. The incubation medium contained sodium phosphate, pH 7.4, 0.25% bovine serum albumin (BSA), 0.5% sodium azide and 3% PEG-8000 (polyethylene glycol). The primary antibody was from a guinea pig immunized against AP-III. The incubations were done overnight at 6° C. The next day, 2 ml of 0.125% BSA was added to each tube and then they were centrifuged for 45 min at 3000 rpm. They were decanted and the radioactivity was counted in a Micromedic gamma counter. The standard curve contained 10 to 600 pg AP-III/tube. Only the linear portion of the curve was used for quantification. Plasma samples were diluted so that the AP-III concentrations were in the range of the standard curve.

[3] = Plasma AP-III levels (radioimmunoassay) in rats, second test: varied AP-III infusion rate, constant thiorphan dose; type: in vivo, rat; details: for Plasma AP-III concn.: thiorphan 3 mg/kg arterial after 30 min sample
Method: as §2, §3, §4, §5, §1
In the second test, the level of thiorphan was kept constant at 3 mg/kg and the rate of AP-III infusion was varied. AP-III was infused into the femoral vein for a total of 60 minutes at a rate of 150,450 and 900 ng/kg/min; another group of rats received only an infusion of dextrose/saline to determine if thiorphan affected the basal levels of AP-III. Blood was taken at 15 and 30 minutes after the start of the AP-III infusion to check for a steady state AP-III plasma concentration. After the 30 min sample, thiorphan (3 mg/kg) was injected arterially and additional blood samples were taken 15 and 30 min later (45 and 60 minutes after the start of the AP-III infusion).
as §6

With `O=C(O)CNC(=O)C(CS)Cc1ccccc1` (racemic) [thiorphan, N-(DL-2-benzyl-3-mercapto-propionyl)glycine] the “Degradation due to method of dissolution (HPLC analysis)” value [1] was “no apparent degradation”, the “AP-III Plasma concn.” value ([2]; thiorphan 1 mg/kg arterial bolus after 30 min sample, 40 min (10 min after thiorphan)) was 23.2 ± 3.1 ng/mL and the “AP-III Plasma concn.” value ([2]; thiorphan 1 mg/kg arterial bolus after 30 min sample, 50 min (20 min after thiorphan)) was 22.2 ± 3.9 ng/mL. The “AP-III Plasma concn.” value ([2]; thiorphan 1 mg/kg arterial bolus after 30 min sample, 60 min (30 min after thiorphan)) was 18.7 ± 2.2 ng/mL, the “AP-III Plasma concn.” value ([2]; thiorphan 1 mg/kg arterial bolus after 30 min sample, 90 min (60 min after thiorphan)) was 15.3 ± 3.9 ng/mL and the “AP-III Plasma concn.” value ([2]; thiorphan 3 mg/kg arterial bolus after 30 min sample, 40 min (10 min after thiorphan)) was 26.7 ± 3.5 ng/mL. For the same compound, the “AP-III Plasma concn.” value ([2]; thiorphan 3 mg/kg arterial bolus after 30 min sample, 50 min (20 min after thiorphan)) was 29.5 ± 4.0 ng/mL, the “AP-III Plasma concn.” value ([2]; thiorphan 3 mg/kg arterial bolus after 30 min sample, 60 min (30 min after thiorphan)) was 28.9 ± 5.6 ng/mL and the “AP-III Plasma concn.” value ([2]; thiorphan 3 mg/kg arterial bolus after 30 min sample, 90 min (60 min after thiorphan)) was 21.2 ± 3.9 ng/mL. The “AP-III Plasma concn.” value ([2]; thiorphan 10 mg/kg arterial bolus after 30 min sample, 40 min (10 min after thiorphan)) was 24.7 ± 2.7 ng/mL, the “AP-III Plasma concn.” value ([2]; thiorphan 10 mg/kg arterial bolus after 30 min sample, 50 min (20 min after thiorphan)) was 29.2 ± 3.1 ng/mL and the “AP-III Plasma concn.” value ([2]; thiorphan 10 mg/kg arterial bolus after 30 min sample, 60 min (30 min after thiorphan)) was 30.2 ± 4.8 ng/mL. For the same compound, the “AP-III Plasma concn.” value ([2]; thiorphan 10 mg/kg arterial bolus after 30 min sample, 90 min (60 min after thiorphan)) was 25.5 ± 5.5 ng/mL, the “AP-III Plasma concn.” value ([2]; thiorphan 30 mg/kg arterial bolus after 30 min sample, 40 min (10 min after thiorphan)) was 22.5 ± 2.7 ng/mL and the “AP-III Plasma concn.” value ([2]; thiorphan 30 mg/kg arterial bolus after 30 min sample, 50 min (20 min after thiorphan)) was 28.8 ± 5.6 ng/mL. The “AP-III Plasma concn.” value ([2]; thiorphan 30 mg/kg arterial bolus after 30 min sample, 60 min (30 min after thiorphan)) was 30.7 ± 6.0 ng/mL, the “AP-III Plasma concn.” value ([2]; thiorphan 30 mg/kg arterial bolus after 30 min sample, 90 min (60 min after thiorphan)) was 31.3 ± 7.8 ng/mL and the “Increase of plasma AP-III levels over control levels” value ([2]; later times after thiorphan) was 3 fold. The “Increase of plasma AP-III levels over control levels” value ([2]; ten minutes after injecting thiorphan) was “at least 2 fold”, the “Increase of AP-III levels upon intravenous infusion” value ([2]; rats, thiorphan 1-30 mg/kg of body weight) was “at least two-fold” and the “Plasma AP-III concentrations vs control, analysis of variance” value ([2]; thiorphan 1 mg/kg, all but the last time point) was “statistically different from control levels”. For the same compound, the “Plasma AP-III concentrations vs control, analysis of variance” value ([2]; thiorphan 3, 10 and 30 mg/kg, all time points after thiorphan) was “statistically different from control levels”, the “Plasma AP-III concn.” value ([3]; rat, AP-III 150 ng/kg/min i.v. infusion, 45 min) was 2.6 ± 0.8 ng/mL and the “Plasma AP-III concn.” value ([3]; rat, AP-III 150 ng/kg/min i.v. infusion, 60 min) was 3.3 ± 1.7 ng/mL. For the same compound, the “Plasma AP-III concn.” value ([3]; rat, AP-III 450 ng/kg/min i.v. infusion, 45 min) was 11.2 ± 3.6 ng/mL, the “Plasma AP-III concn.” value ([3]; rat, AP-III 450 ng/kg/min i.v. infusion, 60 min) was 12.8 ± 5.8 ng/mL and the “Plasma AP-III concn.” value ([3]; rat, AP-III 900 ng/kg/min i.v. infusion, 45 min) was 29.8 ± 7.6 ng/mL. The “Plasma AP-III concn.” value ([3]; rat, AP-III 900 ng/kg/min i.v. infusion, 60 min) was 23.0 ± 6.0 ng/mL, the “Plasma AP-III concn.” value ([3]; rat, no AP-III infusion (dextrose/saline only, basal AP-III), 45 min) was 0.6 ± 0.3 ng/mL and the “Plasma AP-III concn.” value ([3]; rat, no AP-III infusion (dextrose/saline only, basal AP-III), 60 min) was 0.5 ± 0.2 ng/mL. The “Increase of plasma AP-III levels after thiorphan administration” value ([3]; rat, thiorphan 3 mg/kg given 30 min after start of various AP-III infusion rates) was 2-3 fold and the “Basal levels of AP-III after inhibitor” value ([3]; rats receiving no exogenous peptide, thiorphan 3 mg/kg) was “did not increase”.
